Patent US20060088596A1, “Solubilizing a drug for use in a coating” (ATRIUM MEDICAL CORPORATION, priority 2004, published 2006)
Values belong to the compound of their own block, whether it stands above or below them.

Legend:
[1] = Maximum solubility / drug loading of therapeutic agent in vitamin E / bio-absorbable carrier base coating (crystal inspection after solvent removal); assay type: physicochemical; conditions: for maximum solubility: NMP
Text: The amount of solvent that can be included in compositions of the present invention is not particularly limited. In accordance with one embodiment of the present invention, the amount of the therapeutic agent to be dissolved can be an amount up to the maximum amount that can be dissolved in the solvent, vitamin E compound and the bio-absorbable carrier component. The maximum amount of the therapeutic agent that can be dissolved is readily determined by simple mixing, as the presence of any non-dissolved therapeutic agent is apparent after solvent removal on visual inspection. In various embodiments, the amount of the therapeutic agent will be less than the maximum that can be dissolved. Upon administration to a subject of the therapeutic agent dissolved in the bio-absorbable carrier and the solvent, the amount of the given solvent can be limited to a pharmaceutically acceptable amount, which can be readily determined by one of skill in the art. In various aspects, it can be appropriate to include amounts of solvents in excess of pharmaceutically acceptable amounts, with excess solvent removed prior to providing the administration of the composition using conventional techniques such as evaporation.
Referring again to FIG. 1, the ratio of a vitamin E compound and the bio-absorbable carrier component is then determined (step 130). […] The bio-absorbable carrier component can include fish oil, fish oil mono, di and triglycerides, free fatty acids, fatty acid esters, partially oxidized oil, or hydrolyzed oil and any derivatives. After the formulations are made the solvent is removed from the sample under vacuum and the drug formulation is inspected under a microscope for crystal formation. The level of soluble drug can be influenced by such factors as vitamin E level, fish oil level, fatty acid ester content, free fatty acid content, mono, di or triglyceride content, presence of oxidation, or by hydrolysis byproducts of the oil. The amount of soluble drug can also be effected by the solvent and/or solvent loading that is used to load the drug into the formulation.
Referring again to FIG. 1, the bio-absorbable carrier component and the vitamin E compound or a combination thereof are provided (step 130). In accordance with one aspect of the present invention, the bio-absorbable carrier component and the vitamin E compound can be mixed together, for example, by vortexing, sonicating, stirring, rolling, or shaking, to form a second mixture (step 140). Accordingly, the second mixture can be mixed first, the first mixture can be mixed first, or the first mixture and the second mixture can be mixed substantially simultaneously. The first mixture and the second mixture can then be mixed (step 150) such that the therapeutic agent is dissolved, or, if the therapeutic agent was previously dissolved in the solvent, the therapeutic agent remains dissolved. After mixing the first mixture and the second mixture, the solvent is removed by techniques well known in the art, for example, by vacuum, washing, heating, evaporation and the like (step 160). Upon removal of the solvent, the resulting solution can be inspected for presence of crystal formation by techniques well known in the art (step 170). Suitable techniques for inspection for the presense of crystal formation include, for example, visual inspection, microscopic inspections, as well as chemical analysis techniques such as scanning electron microscopy (SEM), environmental scanning electron microscopy (ESEM), differential scanning calorimetry (DSC) and atomic force microscopy (AFM).
A bio-absorbable carrier component in combination with a vitamin E compound was made by mixing 1.5 grams of vitamin E and 3.5 grams of fish oil to form a base coating (30% vitamin E). A sample was then prepared by first dissolving 28 mg of rapamycin in 529 mg of NMP (N-methyl-2-pyrrolidone).

Porcine Coronary Model = conditions: stent coated with agent solubilized in eicosapentaenoic acid oil vs eicosapentaenoic acid oil coated stents; cited from earlier work

- maximum solubility ([1]; 70% vitamin E and 30% fish oil fatty acid formulation): greater than 28%
- maximum solubility ([1]; 70% vitamin E and 30% fish oil formulation): 11.5%
- dissolution state of drug in coating after drying ([1]; 70% vitamin E and 30% fish oil, 9% by weight loading using N-methyl-2-pyrrolidone): totally dissolved
- dissolution state of drug in coating after drying ([1]; 70% vitamin E and 30% fish oil, 9% by weight loading using ethanol): forms crystals
- maximum level of drug loading attainable before crystals began to form after drying ([1]; 70% vitamin E/30% fish oil base coat, drug loaded from NMP): 11.5%
- maximum level of drug loading attainable before crystals began to form after drying ([1]; 70% vitamin E/30% fish oil fatty acids (FOFA) base coat, drug loaded from NMP): 28%
Structure (SMILES): COc1ccc2[nH]cc(CCNC(C)=O)c2c1 [melatonin]

Structure (SMILES): C=C1[C@@H](C)[C@H]2[C@H](Cc3ccccc3)NC(=O)[C@]23[C@H](OC(C)=O)/C=C/[C@@](C)(O)C(=O)[C@@H](C)C/C=C/[C@H]3[C@@H]1O [cytochalasin D]
- less area stenosis compared to the control group (Porcine Coronary Model): 38%
- less intimal hyperplasia compared to the control group (Porcine Coronary Model): 39%

- maximum level of drug loading attainable before crystals began to form after drying ([1]; 70% vitamin E/30% fish oil base coat, drug loaded from ethanol): 4.9%
- dissolution state of drug in coating after drying ([1]; 70% vitamin E/30% fish oil, 4.9% by weight loading using N-methyl-2-pyrrolidone): not totally dissolved
- dissolution state of drug in coating after drying ([1]; 70% vitamin E/30% fish oil, 5% by weight loading using ethanol): completely dissolved
Structure (SMILES): CC(=O)O[C@H]1C(=O)[C@@]2(C)[C@H]([C@H](OC(=O)c3ccccc3)[C@]3(O)C[C@H](OC(=O)[C@H](O)[C@@H](NC(=O)c4ccccc4)c4ccccc4)C(C)=C1C3(C)C)[C@]1(OC(C)=O)CO[C@@H]1C[C@@H]2O [paclitaxel]
